Data from ChEMBL document CHEMBL4308841, “Synthesis, in vitro antiproliferative activity, and kinase inhibitory effects of pyrazole-containing diarylureas and diarylamides” (Eur J Med Chem, 2018).

What was measured:
OVCAR-3 = assay: Growth inhibition of human OVCAR3 cells assessed as cell growth at 10 uM incubated for 48 hrs by sulforhodamine B assay relative to control; type: functional; conditions: OVCAR-3, 48 h, read-out: Activity
SNB-19 [1] = assay: Growth inhibition of human SNB19 cells assessed as cell growth at 10 uM incubated for 48 hrs by sulforhodamine B assay relative to control; type: functional; conditions: SNB-19, 48 h, read-out: Activity
SK-MEL-28 = assay: Growth inhibition of human SK-MEL-28 cells assessed as cell growth at 10 uM incubated for 48 hrs by sulforhodamine B assay relative to control; type: functional; conditions: SK-MEL-28, 48 h, read-out: Activity
Malme-3M = assay: Growth inhibition of human MALME-3M cells assessed as cell growth at 10 uM incubated for 48 hrs by sulforhodamine B assay relative to control; type: functional; conditions: read-out: Activity
HL-60(TB) = assay: Growth inhibition of human HL-60(TB) cells assessed as cell growth at 10 uM incubated for 48 hrs by sulforhodamine B assay relative to control; type: functional; conditions: HL-60, 48 h, read-out: Activity
COLO 205 = assay: Growth inhibition of human COLO205 cells assessed as cell growth at 10 uM incubated for 48 hrs by sulforhodamine B assay relative to control; type: functional; conditions: COLO 205, 48 h, read-out: Activity
PC-3 = assay: Growth inhibition of human PC3 cells assessed as cell growth at 10 uM incubated for 48 hrs by sulforhodamine B assay relative to control; type: functional; conditions: PC-3, 48 h, read-out: Activity
MCF7 = assay: Growth inhibition of human MCF7 cells assessed as cell growth at 10 uM incubated for 48 hrs by sulforhodamine B assay relative to control; type: functional; conditions: MCF7, 48 h, read-out: Activity
KM12 = assay: Growth inhibition of human KM12 cells assessed as cell growth at 10 uM incubated for 48 hrs by sulforhodamine B assay relative to control; type: functional; conditions: KM12, 48 h, read-out: Activity
SW-620 = assay: Growth inhibition of human SW620 cells assessed as cell growth at 10 uM incubated for 48 hrs by sulforhodamine B assay relative to control; type: functional; conditions: SW-620, 48 h, read-out: Activity
NCI-H23 = assay: Growth inhibition of human NCI-H23 cells assessed as cell growth at 10 uM incubated for 48 hrs by sulforhodamine B assay relative to control; type: functional; conditions: NCI-H23, 48 h, read-out: Activity
ACHN = assay: Growth inhibition of human ACHN cells assessed as cell growth at 10 uM incubated for 48 hrs by sulforhodamine B assay relative to control; type: functional; conditions: read-out: Activity
SN12C = assay: Growth inhibition of human SN12C cells assessed as cell growth at 10 uM incubated for 48 hrs by sulforhodamine B assay relative to control; type: functional; conditions: read-out: Activity
A498 = assay: Growth inhibition of human A498 cells assessed as cell growth at 10 uM incubated for 48 hrs by sulforhodamine B assay relative to control; type: functional; conditions: A498, 48 h, read-out: Activity
NCI/ADR-RES = assay: Growth inhibition of human NCI/ADR-RES cells assessed as cell growth at 10 uM incubated for 48 hrs by sulforhodamine B assay relative to control; type: functional; conditions: read-out: Activity
M14 = assay: Growth inhibition of human M14 cells assessed as cell growth at 10 uM incubated for 48 hrs by sulforhodamine B assay relative to control; type: functional; conditions: M14, 48 h, read-out: Activity
786-0 = assay: Growth inhibition of human 786-0 cells assessed as cell growth at 10 uM incubated for 48 hrs by sulforhodamine B assay relative to control; type: functional; conditions: 786-0, 48 h, read-out: Activity
A549 = assay: Growth inhibition of human A549/ATCC cells assessed as cell growth at 10 uM incubated for 48 hrs by sulforhodamine B assay relative to control; type: functional; conditions: A549, 48 h, read-out: Activity
SF-268 = assay: Growth inhibition of human SF268 cells assessed as cell growth at 10 uM incubated for 48 hrs by sulforhodamine B assay relative to control; type: functional; conditions: SF-268, 48 h, read-out: Activity
BT-549 = assay: Growth inhibition of human BT549 cells assessed as cell growth at 10 uM incubated for 48 hrs by sulforhodamine B assay relative to control; type: functional; conditions: BT-549, 48 h, read-out: Activity
Hs-578T [2] = assay: Growth inhibition of human Hs578T cells assessed as cell growth at 10 uM incubated for 48 hrs by sulforhodamine B assay relative to control; type: functional; conditions: read-out: Activity
RXF 393 = assay: Growth inhibition of human RXF393 cells assessed as cell growth at 10 uM incubated for 48 hrs by sulforhodamine B assay relative to control; type: functional; conditions: RXF 393, 48 h, read-out: Activity
U-251 = assay: Growth inhibition of human U251 cells assessed as cell growth at 0.1 uM incubated for 48 hrs by sulforhodamine B assay relative to control; type: functional; conditions: U-251, 48 h, read-out: Activity
Hs-578T [3] = assay: Growth inhibition of human Hs578T cells assessed as cell growth at 100 uM incubated for 48 hrs by sulforhodamine B assay relative to control; type: functional; conditions: read-out: Activity
SF-539 [4] = assay: Growth inhibition of human SF539 cells assessed as cell growth at 0.01 uM incubated for 48 hrs by sulforhodamine B assay relative to control; type: functional; conditions: SF-539, 48 h, read-out: Activity
RPMI-8226 = assay: Growth inhibition of human RPMI8226 cells incubated for 48 hrs by sulforhodamine B assay; type: functional, cell-based; conditions: RPMI-8226, 48 h
MDA-MB-435 = assay: Growth inhibition of human MDA-MB-435 cells assessed as cell growth at 0.1 uM incubated for 48 hrs by sulforhodamine B assay relative to control; type: functional; conditions: MDA-MB-435, 48 h, read-out: Activity
HOP-62 = assay: Growth inhibition of human HOP62 cells incubated for 48 hrs by sulforhodamine B assay; type: functional, cell-based; conditions: HOP-62, 48 h
SNB-19 [5] = assay: Growth inhibition of human SNB19 cells assessed as cell growth at 1 uM incubated for 48 hrs by sulforhodamine B assay relative to control; type: functional; conditions: SNB-19, 48 h, read-out: Activity
SF-539 [6] = assay: Growth inhibition of human SF539 cells assessed as cell growth at 1 uM incubated for 48 hrs by sulforhodamine B assay relative to control; type: functional; conditions: SF-539, 48 h, read-out: Activity
DU-145 = assay: Growth inhibition of human DU145 cells assessed as cell growth at 100 uM incubated for 48 hrs by sulforhodamine B assay relative to control; type: functional; conditions: DU-145, 48 h, read-out: Activity
[7] = read-out: LC50 (the source's name)
[8] = read-out: pLC50 (the source's name) (converted)

COc1cc(Cl)cc(-c2nn(-c3cccc(NC(=O)c4ccc(Cl)c(Cl)c4)c3)cc2-c2ccncc2)c1 gave a growth at 10 µM (OVCAR-3) of 53.4%, a growth at 10 µM (SNB-19 [1]) of 71.5% and a growth at 10 µM (SK-MEL-28) of 87.8%. The growth at 10 µM (Malme-3M) was 96.4%, the growth at 10 µM (HL-60(TB)) was 94.1% and the growth at 10 µM (COLO 205) was 81.5%. It also gave a growth at 10 µM (PC-3) of 34%, a growth at 10 µM (MCF7) of 57.7% and a growth at 10 µM (KM12) of 62.3%. For the same compound, the growth at 10 µM (SW-620) was 84.2%, the growth at 10 µM (NCI-H23) was 75.2% and the growth at 10 µM (ACHN) was 63.9%. For the same compound, the growth at 10 µM (SN12C) was 69.6%, the growth at 10 µM (A498) was -0.94% and the growth at 10 µM (NCI/ADR-RES) was 61.4%. For the same compound, the growth at 10 µM (M14) was 68.9%, the growth at 10 µM (786-0) was 74.1% and the growth at 10 µM (A549) was 59.7%. It also gave a growth at 10 µM (SF-268) of 82.4%, a growth at 10 µM (BT-549) of 85.2% and a growth at 10 µM (Hs-578T [2]) of 63.6%. It also gave a growth at 10 µM (RXF 393) of 59.2%.

With COc1cc(Cl)cc(-c2nn(-c3cccc(NC(=O)Nc4cc(C(F)(F)F)cc(C(F)(F)F)c4)c3)cc2-c2ccncc2)c1 the growth at 10 µM (OVCAR-3) was -1.62%, the growth at 10 µM (SNB-19 [1]) was 26.1% and the growth at 10 µM (SK-MEL-28) was 6.55%. The growth at 0.1 µM (U-251) was 91%, the growth at 10 µM (Malme-3M) was -19.2% and the growth at 100 µM (Hs-578T [3]) was -25%. The growth at 0.01 µM (SF-539 [4]) was 100%, the growth at 10 µM (HL-60(TB)) was -20.1% and the growth at 10 µM (COLO 205) was -64%. For the same compound, the growth at 10 µM (PC-3) was -6.27%, the growth at 10 µM (MCF7) was 3.81% and the growth at 10 µM (KM12) was 12.2%. For the same compound, the growth at 10 µM (SW-620) was 7.18%, the IC50 (RPMI-8226) was 240 nM and the GI50 (RPMI-8226; read-out: GI50) was 238 nM. The CC50 (RPMI-8226; [7]) was greater than 100000 nM, the TGI (RPMI-8226; read-out: TGI) was 760 nM and the GI50 (RPMI-8226; read-out: pGI50 (converted)) was 234 nM. It also gave a CC50 (RPMI-8226; [8]) greater than 100000 nM, a TGI (RPMI-8226; read-out: pTGI (converted)) of 759 nM and a growth at 10 µM (NCI-H23) of -6.14%. For the same compound, the growth at 0.1 µM (MDA-MB-435) was 98%, the growth at 10 µM (ACHN) was 10.3% and the growth at 10 µM (SN12C) was 9.32%. The growth at 10 µM (A498) was -21.6%, the IC50 (HOP-62) was 650 nM and the GI50 (HOP-62; read-out: GI50) was 648 nM. It also gave a CC50 (HOP-62; [7]) of 7140 nM, a TGI (HOP-62; read-out: TGI) of 2390 nM and a GI50 (HOP-62; read-out: pGI50 (converted)) of 646 nM. It also gave a CC50 (HOP-62; [8]) of 7080 nM, a TGI (HOP-62; read-out: pTGI (converted)) of 2400 nM and a growth at 1 µM (SNB-19 [5]) of 28%. For the same compound, the growth at 10 µM (NCI/ADR-RES) was 2.37%, the growth at 10 µM (M14) was 1.22% and the growth at 10 µM (786-0) was -26.9%. For the same compound, the growth at 10 µM (A549) was 5.14%, the growth at 1 µM (SF-539 [6]) was 59% and the growth at 100 µM (DU-145) was -58%. It also gave a growth at 10 µM (SF-268) of 14.2%, a growth at 10 µM (BT-549) of 6.61% and a growth at 10 µM (Hs-578T [2]) of 5.82%. For the same compound, the growth at 10 µM (RXF 393) was -29.2%.

COc1cc(Cl)cc(-c2nn(-c3cccc(NC(=O)c4cc(C(F)(F)F)cc(C(F)(F)F)c4)c3)cc2-c2ccncc2)c1 showed a growth at 10 µM (OVCAR-3) of 25.5%, a growth at 10 µM (SNB-19 [1]) of 86.4% and a growth at 10 µM (SK-MEL-28) of 78.8%. The growth at 10 µM (Malme-3M) was 104%, the growth at 10 µM (HL-60(TB)) was 84.3% and the growth at 10 µM (COLO 205) was 88.7%. It also gave a growth at 10 µM (PC-3) of 35.6%, a growth at 10 µM (MCF7) of 57.8% and a growth at 10 µM (KM12) of 55.5%. For the same compound, the growth at 10 µM (SW-620) was 86.2%, the growth at 10 µM (NCI-H23) was 72.1% and the growth at 10 µM (ACHN) was 58.2%. It also gave a growth at 10 µM (SN12C) of 69.8%, a growth at 10 µM (A498) of -1.74% and a growth at 10 µM (NCI/ADR-RES) of 67.8%. For the same compound, the growth at 10 µM (M14) was 67.3%, the growth at 10 µM (786-0) was 80.2% and the growth at 10 µM (A549) was 43.5%. It also gave a growth at 10 µM (SF-268) of 89.2%, a growth at 10 µM (BT-549) of 96.8% and a growth at 10 µM (Hs-578T [2]) of 81.1%. For the same compound, the growth at 10 µM (RXF 393) was 67.7%.
